{"source": "paper PMC10514301", "about": "(Signal Transduction and Targeted Therapy, 2023)", "key": {"HCoV-OC43 [1]": {"test_system": "HCoV-OC43", "assay": "Median effect plots of individual drugs against HCoV-OC43 in RD cells", "assay_type": "cell-based"}, "HCoV-OC43 [2]": {"test_system": "HCoV-OC43", "assay": "Antiviral activity against HCoV-OC43 in RD cells (qRT-PCR)", "assay_type": "cell-based", "settings": "Betacoronavirus 1, OC43, RD, 48 h, read-out: EC50 mean ± sd, RD, OC43"}, "HCoV-229E [3]": {"test_system": "HCoV-229E", "assay": "Antiviral activity against HCoV-229E in Huh-7 cells (qRT-PCR)", "assay_type": "cell-based", "settings": "Human coronavirus 229E, Huh-7, 48 h, read-out: EC50 mean ± sd, Huh-7, 229E"}, "Cytotoxicity in RD cells": {"assay": "Cytotoxicity in RD cells", "assay_type": "cell-based", "settings": "human"}, "HCoV-OC43 [4]": {"test_system": "HCoV-OC43", "assay": "Antiviral activity against HCoV-OC43 in Huh-7 cells (qRT-PCR)", "assay_type": "cell-based", "settings": "Betacoronavirus 1, OC43, Huh-7, 48 h, read-out: EC50 mean ± sd, Huh-7, OC43"}, "HCoV-229E [5]": {"test_system": "HCoV-229E", "assay": "Antiviral activity against HCoV-229E in MRC5 cells (qRT-PCR)", "assay_type": "cell-based", "settings": "Human coronavirus 229E, MRC5, 48 h, read-out: EC50 mean ± sd, MRC5, 229E"}, "[6]": {"assay": "Plasma pharmacokinetics after oral administration in C57BL/6J mice", "settings": "for decrease of plasma Cmax in the VV116-nirmatrelvir combination compared with the individual study / decrease of plasma exposure in the VV116-nirmatrelvir combination compared with the individual study: oral VV116 + nirmatrelvir + ritonavir 50 + 100 + 50 mg/kg", "method": "The PK studies were conducted at Suzhou HQ Bioscience Co., Ltd. Eighteen C57BL/6J mice (N = 6 for each group, male) were randomly divided into three groups, and fasted for 12 h before dosing. […] The vehicle for oral administration of the test compounds was 5% DMSO + 5% Solutol HS-15 + 5% PEG400 + 85% Saline. Blood sample (70 μL) was collected from the orbit of the first three mice in each group at 0.25, 1.0, 4.0, and 8.0 and the last three mice in each group at 0.5, 2.0, 6.0, and 24 h post-dosing. The sample was taken into EDTA-K2 tubes, and centrifuged at 11,000 rpm for 5 min. The plasma was separated and frozen in a refrigerator at −70 °C for testing. The operation was conducted under an ice water bath. The concentration of analyte in plasma was determined by LC–MS/MS."}, "HCoV-OC43 [7]": {"test_system": "HCoV-OC43", "assay": "In vivo efficacy against HCoV-OC43 in suckling mice", "design": "species or system suckling Balb/c mice"}, "[8]": {"settings": "Betacoronavirus 1, OC43, RD, read-out: IC50 (drug concentration that inhibit 50% viral replication)"}, "[9]": {"settings": "Betacoronavirus 1, read-out: IC50 (drug concentration that inhibit 50% viral replication), HCoV-OC43, RD cells, MOI 0.1, 48 hpi, median effect plot"}, "[10]": {"settings": "male, C57BL/6J, mouse, plasma, po, 50 mg/kg"}}, "note": "Where “and” joins values, the source holds several entries; their conditions need not be identical. Identical values can stand only once. Like-named read-outs stand apart in the source and are kept apart here."}
{"smiles": "CCC(CC)COC(=O)[C@H](C)N[P@](=O)(OC[C@H]1O[C@@](C#N)(c2ccc3c(N)ncnn23)[C@H](O)[C@@H]1O)Oc1ccccc1", "note": "[RDV, remdesivir]", "values": [{"measurement": "IC50", "setting": "HCoV-OC43 [1]; [8]", "result": 20.2, "unit": "nM"}, {"measurement": "slope steepness (m) of the dose-response curve", "setting": "HCoV-OC43 [1]; OC43", "result": 2.40}, {"measurement": "EC50", "setting": "HCoV-OC43 [2]", "result": "21 ± 35", "unit": "nM"}, {"measurement": "EC50", "setting": "HCoV-229E [3]", "result": 41, "unit": "nM"}, {"measurement": "CC50", "setting": "Cytotoxicity in RD cells", "result": 1570, "unit": "nM"}]}
{"smiles": "O=c1nc(NO)ccn1[C@@H]1O[C@H](CO)[C@@H](O)[C@H]1O", "note": "[NHC, β-d-N4-hydroxycytidine]", "values": [{"measurement": "slope steepness (m) of the dose-response curve", "setting": "HCoV-OC43 [1]; HCoV-OC43, RD cells, MOI 0.1, 48 hpi, median effect plot", "result": 2.80}, {"measurement": "IC50", "setting": "HCoV-OC43 [1]; read-out: IC50 (drug concentration that inhibit 50% viral replication), HCoV-OC43, RD cells, MOI 0.1, 48 hpi, median effect plot", "result": 5680, "unit": "nM"}]}
{"smiles": "Cc1cccc(C)c1OCC(=O)N[C@@H](Cc1ccccc1)[C@@H](O)C[C@H](Cc1ccccc1)NC(=O)[C@H](C(C)C)N1CCCNC1=O", "note": "[Lopinavir, lopinavir]", "values": [{"measurement": "IC50", "setting": "HCoV-OC43 [1]; [9]", "result": 1440, "unit": "nM"}, {"measurement": "slope steepness (m) of the dose-response curve", "setting": "HCoV-OC43 [1]; OC43", "result": 1.94}]}
{"smiles": "COc1ccc2c(O[C@@H]3C[C@H]4C(=O)N[C@]5(C(=O)NS(=O)(=O)C6CC6)C[C@H]5/C=C\\CCCCN(C)C(=O)[C@@H]4C3)cc(-c3nc(C(C)C)cs3)nc2c1C", "note": "[Simeprevir, simeprevir]", "values": [{"measurement": "IC50", "setting": "HCoV-OC43 [1]; [9]", "result": 2220, "unit": "nM"}, {"measurement": "slope steepness (m) of the dose-response curve", "setting": "HCoV-OC43 [1]; OC43", "result": 2.18}]}
{"smiles": "N#C[C@@]1(c2ccc3c(N)ncnn23)O[C@H](CO)[C@@H](O)[C@H]1O", "note": "[GS-441524]", "values": [{"measurement": "EC50", "setting": "HCoV-OC43 [4]", "result": "1400 ± 55", "unit": "nM"}, {"measurement": "EC50", "setting": "HCoV-229E [5]", "result": "30 ± 21", "unit": "nM"}, {"measurement": "EC50", "setting": "HCoV-OC43 [2]", "result": "460 ± 79", "unit": "nM"}, {"measurement": "EC50", "setting": "HCoV-229E [3]", "result": "560 ± 82", "unit": "nM"}]}
{"smiles": "NC(=O)c1ncn([C@@H]2O[C@H](CO)[C@@H](O)[C@H]2O)n1", "note": "[Ribavirin, ribavirin]", "values": [{"measurement": "IC50", "setting": "HCoV-OC43 [1]; [9]", "result": 49500, "unit": "nM"}, {"measurement": "slope steepness (m) of the dose-response curve", "setting": "HCoV-OC43 [1]; OC43", "result": 2.19}]}
{"smiles": "CC(C)(C)NC(=O)N[C@H](C(=O)N1C[C@H]2[C@@H]([C@H]1C(=O)NC(CC1CCC1)C(=O)C(N)=O)C2(C)C)C(C)(C)C", "note": "(some centres unmarked) [Boceprevir, boceprevir]", "values": [{"measurement": "IC50", "setting": "HCoV-OC43 [1]; [9]", "result": 26900, "unit": "nM"}, {"measurement": "slope steepness (m) of the dose-response curve", "setting": "HCoV-OC43 [1]; OC43", "result": 11.2}]}
{"smiles": "Cc1cnc(C(=O)N[C@H]2CCCCC/C=C\\[C@@H]3C[C@@]3(C(=O)NS(=O)(=O)C3CC3)NC(=O)[C@@H]3C[C@@H](Oc4nc5ccccc5c5ccccc45)CN3C2=O)cn1", "note": "[Paritaprevir, paritaprevir]", "values": [{"measurement": "IC50", "setting": "HCoV-OC43 [1]; [9]", "result": 2500, "unit": "nM"}, {"measurement": "slope steepness (m) of the dose-response curve", "setting": "HCoV-OC43 [1]; OC43", "result": 1.55}]}
{"smiles": "CC(C)(C)[C@H](NC(=O)C(F)(F)F)C(=O)N1C[C@H]2[C@@H]([C@H]1C(=O)N[C@H](C#N)C[C@@H]1CCNC1=O)C2(C)C", "note": "[Nirmatrelvir, nirmatrelvir]", "values": [{"measurement": "IC50", "setting": "HCoV-OC43 [1]; [8]", "result": 121, "unit": "nM"}, {"measurement": "slope steepness (m) of the dose-response curve", "setting": "HCoV-OC43 [1]; OC43", "result": 4.49}, {"measurement": "decrease of plasma Cmax in the VV116-nirmatrelvir combination compared with the individual study", "setting": "[6]", "result": 12.5, "unit": "%"}, {"measurement": "decrease of plasma exposure in the VV116-nirmatrelvir combination compared with the individual study", "setting": "[6]", "result": 19.8, "unit": "%"}, {"measurement": "viral loads (titers, immunoplaque assay) in organs", "setting": "HCoV-OC43 [7]; VV116 50 mpk, nirmatrelvir 10 and 20 mpk with ritonavir, the two combinations", "result": "less than the limit of detection (LOD)"}, {"measurement": "inflammation (cytokine gene expression) in the brain", "setting": "HCoV-OC43 [7]; VV116 50 mpk, nirmatrelvir 10 mpk, 25 mpk", "result": "dramatically reduced inflammation"}, {"measurement": "lung histopathology (hematoxylin and eosin)", "setting": "HCoV-OC43 [7]; VV116 50 mpk, nirmatrelvir 10 mpk, 25 mpk, Combo 1, Combo 2", "result": "significantly improved"}, {"measurement": "inflammation suppression (cytokine gene expression), especially IL-6 in the lungs", "setting": "HCoV-OC43 [7]; individual VV116 and nirmatrelvir treatments versus Combo 1 and Combo 2", "result": "limited inflammation suppression"}, {"measurement": "viral copies in the brain", "setting": "HCoV-OC43 [7]; oral once a day, VV116 25 and 50 mpk, nirmatrelvir 25 mpk with ritonavir 50 mpk", "result": "almost completely cleared"}]}
{"smiles": "[2H]c1cc([C@]2(C#N)O[C@H](CO)[C@@H](O)[C@H]2O)n2ncnc(N)c12", "note": "[X1]", "values": [{"measurement": "AUC(0-t)", "setting": "[6]; [10]", "result": 19500, "unit": "ng·h/mL"}, {"measurement": "Cmax", "setting": "[6]; [10]", "result": "10700 ng/mL and 36.6 µM"}, {"measurement": "decrease of plasma Cmax in the VV116-nirmatrelvir combination compared with the individual study", "setting": "[6]", "result": 20.3, "unit": "%"}, {"measurement": "decrease of plasma exposure in the VV116-nirmatrelvir combination compared with the individual study", "setting": "[6]", "result": 13.5, "unit": "%"}, {"measurement": "EC50", "setting": "HCoV-OC43 [4]", "result": "1100 ± 61", "unit": "nM"}, {"measurement": "EC50", "setting": "HCoV-229E [5]", "result": "60 ± 160", "unit": "nM"}, {"measurement": "EC50", "setting": "HCoV-OC43 [2]", "result": "800 ± 420", "unit": "nM"}, {"measurement": "EC50", "setting": "HCoV-229E [3]", "result": "570 ± 70", "unit": "nM"}]}
